Data from US9126973B2, “Multiheteroaryl compounds as inhibitors of H-PGDS and their use for treating prostaglandin D2 mediated diseases” (Cayman Chemical Company, Incorporated, priority 2008, dated 2015).

Legend:
H-PGDS = H-PGDS (Homo sapiens (Human), UniProt O60760); assay: H-PGDS Fluorescence Polarization Binding Assay (FPBA); details: H-PGDS-MBP fusion enzyme, fluorescent probe, reduced glutathione 5 mM, 60-90 minutes at room temperature, 96-well format
Description: H-PGDS Fluorescence Polarization Binding Assay This assay essentially is available from Cayman Chemical Company as Catalog item #600007. The test data reported for the aforementioned Examples (H-PGDS FPBA IC50) were generated using a 96-well, instead of the 384-well, format. […] Assays were performed in 96-well microtiter plates in 100 μL of total sample volume. Excitation and emission wavelengths appropriate for the employed detection analyte were used. […] Twelve clean microfuge tubes were labeled A1 through A12. […] Dimethyl sulfoxide (50 μL) was added to each of tubes A1 through A11. The HQL-79 control solution was serially diluted by removing 50 μL from tube A12 and placing it in tube A11 with subsequent thorough mixing of the contents of tube A11. Next, 50 μL was removed from tube A11 and was placed into tube A10 with subsequent thorough mixing of the contents of tube A10. This process was repeated for tubes A9 through A2. […] A test compound may be dissolved in DMSO, ethanol, or methanol at several concentrations when the titration endpoint is unknown. […] Assay cocktail (95 μL) was added to each plate well. DMSO (5 μL) from microfuge tube A1 was added to each plate well A1 and B1. Positive control solution (5 μL) from microfuge tube A2 was added to each plate well A2 and B2. Positive control solution (5 μL) from microfuge tube A3 was added to each plate well A3 and B3. This procedure was continued until all the positive control standard dilutions were aliquoted. Test compound solutions (5 μL) were added to the wells. […] The IC50 for a particular test compound was obtained by performing a full concentration titration versus a full concentration titration of positive control. Comparison of a single concentration of a test compound to the maximum binding well provided an assessment of the relative affinity of the test compound for H-PGDS-MBP. The plate was covered and incubated for 60-90 minutes at room temperature. The FP signal is stable for at least two hours. […] The measurements were taken in the fluorescent polarization mode with the z-height set to the middle of the well and the G-factor set to 1.13 on a Tecan Safire 2 reader.

Chain of H-PGDS (O60760 whole entry, the tested form may be a part): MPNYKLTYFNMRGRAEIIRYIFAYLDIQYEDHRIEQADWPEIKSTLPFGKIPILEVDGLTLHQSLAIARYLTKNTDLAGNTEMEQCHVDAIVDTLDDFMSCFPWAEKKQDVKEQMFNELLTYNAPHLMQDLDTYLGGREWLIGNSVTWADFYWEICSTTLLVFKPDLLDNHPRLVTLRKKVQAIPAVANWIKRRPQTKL

| Compound | melting point [°C] | IC50 (H-PGDS) [µM] |
| --- | --- | --- |
| c1ccc(-c2cc(-c3cnc(-c4ccccc4)nc3)[nH]n2)cc1 [Example 45, 2-phenyl-5-(3-phenyl-1H-pyrazol-5-yl)pyrimidine] | – | 1.5 |
| Cn1cncc1-c1cnc(-c2ccccc2)nc1 [Example 32, 5-(1-methyl-1H-imidazol-5-yl)-2-phenylpyrimidine] | 144 | 7.6 |
| COc1ccc(-c2ncc(-c3cnc(-c4ccccc4)[nH]3)cn2)cc1OC [Example 7, 2-(3,4-dimethoxyphenyl)-5-(2-phenyl-1H-imidazol-5-yl)pyrimidine] | 231 | 3.5 |
| c1ccc(-c2ncc(-c3cnc(CCc4cccnc4)[nH]3)cn2)cc1 [Example 16, 2-phenyl-5-(2-(2-(pyridin-3-yl)ethyl)-1H-imidazol-5-yl)pyrimidine] | 113 | 0.3 |
| CC(C)(C)OC(=O)N1CCCC(c2ncc(-c3cnc(-c4ccccc4)nc3)[nH]2)C1 (racemic) [Example 21, (±)-tert-butyl 3-(5-(2-phenylpyrimidin-5-yl)-1H-imidazol-2-yl)piperidine-1-carboxylate] | 130 | 0.2 |
| c1ccc(Cn2cncc2-c2cnc(-c3ccccc3)nc2)cc1 [Example 33, 5-(1-benzyl-1H-imidazol-5-yl)-2-phenylpyrimidine] | 140 | 2 |
| c1ccc(-c2ncc(-c3cnc(C4CCNC4)[nH]3)cn2)cc1 (racemic) [Example 30, (±)-2-phenyl-5-(2-(pyrrolidin-3-yl)-1H-imidazol-5-yl)pyrimidine] | – | 2 |
| c1ccc(-c2ncc(-c3ncco3)cn2)cc1 [Example 42, 2-(2-phenylpyrimidin-5-yl)oxazole] | 175 to 177 | 7.8 |
| c1ccc(Cc2ncc(-c3cnc(Oc4ccccc4)nc3)[nH]2)cc1 [Example 39, 5-(2-benzyl-1H-imidazol-4-yl)-2-phenoxypyrimidine] | 60 | 10 |
| c1ccc(-c2ncc(-c3cnc(-c4ccccc4)o3)cn2)cc1 [Example 46, 2-phenyl-5-(2-phenylpyrimidin-5-yl)oxazole] | 228 to 231 | 125 |
| c1ccc(CN2CCCC(c3ncc(-c4cnc(-c5ccccc5)nc4)[nH]3)C2)cc1 (racemic) [Example 23, (±)-5-(2-(1-benzylpiperidin-3-yl)-1H-imidazol-5-yl)-2-phenylpyrimidine] | 179 | 0.6 |
| O=C(N1CCCC(c2nc(-c3cnc(-c4ccccc4)nc3)c[nH]2)C1)C(F)(F)F (racemic) [Example 27, (±)-2,2,2-trifluoro-1-(3-(4-(2-phenylpyrimidin-5-yl)-1H-imidazol-2-yl)piperidin-1-yl)methanone] | – | 0.09 |
| c1ccc(-c2ncc(-c3ncc(-c4ccccc4)[nH]3)cn2)cc1 [Example 44, 2-phenyl-5-(5-phenyl-1H-imidazol-2-yl)pyrimidine] | 238 | 2.8 |
| CC(C)(C)OC(=O)N1CCC(c2ncc(-c3cnc(-c4ccccc4)nc3)[nH]2)C1 (racemic) [Example 28, (±)-tert-butyl 3-(5-(2-phenylpyrimidin-5-yl)-1H-imidazol-2-yl)pyrrolidine-1-carboxylate] | 219 | – |
| c1ccc(Cn2cnc(-c3cnc(-c4ccccc4)nc3)c2)cc1 [Example 34, 5-(1-benzyl-1H-imidazol-4-yl)-2-phenylpyrimidine] | 195 | 4 |
| c1ccc(-c2ncc(-c3ncc(-c4ccccc4)o3)cn2)cc1 [Example 47, 5-phenyl-2-(2-phenylpyrimidin-5-yl)oxazole] | – | > 20 |
| c1ccc(-c2ncc(-c3cn(C(c4ccccc4)(c4ccccc4)c4ccccc4)cn3)cn2)cc1 [Example 34 (Step A), 2-phenyl-5-(1-trityl-1H-imidazol-4-yl)pyrimidine] | – | > 20 |
| c1ccc(Cn2c(-c3cnc(-c4ccccc4)nc3)cnc2-c2ccccc2)cc1 [Example 1 (Step C), 5-(1-benzyl-2-phenyl-1H-imidazol-5-yl)-2-phenylpyrimidine] | – | 15 |
| OC(N1CCCC(c2ncc(-c3cnc(-c4ccccc4)nc3)[nH]2)C1)C(F)(F)F (centres unmarked) [Example 24, 2,2,2-trifluoro-1-(3-(4-(2-phenylpyrimidin-5-yl)-1H-imidazol-2-yl)piperidin-1-yl)ethanol] | – | 10 |
| CC(C)(C)OC(=O)N1CCC(c2ncc(-c3cnc(-c4ccccc4)nc3)[nH]2)CC1 [Example 17, tert-butyl 4-(5-(2-phenylpyrimidin-5-yl)-1H-imidazol-2-yl)piperidine-1-carboxylate] | – | 0.15 |
| c1ccc(Cn2c(-c3ccccc3)cnc2-c2cnc(-c3ccccc3)nc2)cc1 [Example 44 (Step B), 5-(1-benzyl-5-phenyl-1H-imidazol-2-yl)-2-phenylpyrimidine] | – | 15 |
| c1ccc(-c2ncc(-c3cnc(C4CCNCC4)[nH]3)cn2)cc1 [Example 18, 2-phenyl-5-(2-(piperidin-4-yl)-1H-imidazol-5-yl)pyrimidine] | – | 1 |
| CNC(=O)N1CCCC(c2nc(-c3cnc(-c4ccccc4)nc3)cn2C(=O)NC)C1 (racemic) [Example 25A, (±)-N-methyl-3-(1-(methylcarbamoyl)-4-(2-phenylpyrimidin-5-yl)-1H-imidazol-2-yl)piperidine-1-carboxamide] | – | 0.62 |
| CC(=O)N1CCCC(c2nc(-c3cnc(-c4ccccc4)nc3)c[nH]2)C1 (centres unmarked) [1-(3-(4-(2-phenylpyrimidin-5-yl)-1H-imidazol-2-yl)piperidin-1-yl)ethanone] | – | 0.09 |
| CNC(=O)N1CCCC(c2ncc(-c3cnc(-c4ccccc4)nc3)[nH]2)C1 (racemic) [Example 25B, (±)-N-methyl-3-(5-(2-phenylpyrimidin-5-yl)-1H-imidazol-2-yl)piperidine-1-carboxamide] | – | 0.3 |

Results, then the molecule that gave them:

| melting point [°C] | IC50 (H-PGDS) [µM] | Compound |
| --- | --- | --- |
| 228 | > 20 | Fc1cccc(-c2nc(-c3cnc(-c4ccccc4)nc3)cs2)c1 [Example 58, 2-(3-fluorophenyl)-4-(2-phenylpyrimidin-5-yl)thiazole] |
| – | 5 | O=C(O)c1cc(-c2cnc(Oc3ccccc3)nc2)[nH]n1 [Example 56, 5-(2-phenoxypyrimidin-5-yl)-1H-pyrazole-3-carboxylic acid] |
| – | 5.9 | CC(C)(C)OC(=O)c1csc(-c2cnc(-c3ccccc3)nc2)n1 [Example 62, tert-butyl 2-(2-phenylpyrimidin-5-yl)thiazole-4-carboxylate] |
| 134 to 136 | 3.4 | COCCCNC(=O)c1csc(-c2cnc(-c3ccccc3)nc2)n1 [Example 64, N-(3-methoxypropyl)-2-(2-phenylpyrimidin-5-yl)thiazole-4-carboxamide] |
| – | 2.5 | O=C(NCCN1CCOCC1)c1csc(-c2cnc(-c3ccccc3)nc2)n1 [Example 65, N-(2-morpholinoethyl)-2-(2-phenylpyrimidin-5-yl)thiazole-4-carboxamide] |
| 290 | 5 | O=C(O)C(F)(F)F.c1ccc(-c2ncc(-c3csc(C4CCNCC4)n3)cn2)cc1 [Example 61, 4-(4-(2-phenylpyrimidin-5-yl)thiazol-2-yl)piperidinium 2,2,2-trifluoroacetate] |
| – | 20 | Cn1nnnc1-c1cnc(-c2ccccc2)nc1 [Example 73B, 5-(1-methyl-1H-tetrazol-5-yl)-2-phenylpyrimidine] |
| – | 10 | Cn1nnc(-c2cnc(-c3ccccc3)nc2)n1 [Example 73A, 5-(2-methyl-2H-tetrazol-5-yl)-2-phenylpyrimidine] |
| 178 to 180 | – | CC(C)(C)OC(=O)N1CCC(n2nnc(-c3cnc(-c4ccccc4)nc3)n2)CC1 [Example 52, tert-butyl 4-(5-(2-phenylpyrimidin-5-yl)-2H-tetrazol-2-yl)piperidine-1-carboxylate] |
| – | > 10 | Cc1ccc(-c2cnc(-c3cccnc3)[nH]2)cn1 [Example 66, 2-methyl-5-(2-(pyridin-3-yl)-1H-imidazol-5-yl)pyridine] |
| – | > 20 | Cc1nc(-c2ccccc2)sc1-c1cnc(-c2cccnc2)n1Cc1ccccc1 [Example 71, 5-(1-benzyl-2-(pyridin-3-yl)-1H-imidazol-5-yl)-4-methyl-2-phenylthiazole] |
| – | 1.1 | O=C(O)c1csc(-c2cnc(-c3ccccc3)nc2)n1 [Example 63, 2-(2-Phenylpyrimidin-5-yl)thiazole-4-carboxylic acid] |
| – | > 10 | Cc1ccc(-c2cnc(-c3cccnc3)n2Cc2ccccc2)cn1 [Example 66 (Step A), 5-(1-benzyl-2-(pyridin-3-yl)-1H-imidazol-5-yl)-2-methylpyridine] |
| – | 1.3 | c1ccc(-c2ncc(-c3cc(-c4cccnc4)n[nH]3)cn2)cc1 [Example 53, 2-phenyl-5-(3-(pyridin-3-yl)-1H-pyrazol-5-yl)pyrimidine] |
